Data from ChEMBL document CHEMBL3576838, “Synthesis and in vitro and in vivo biological evaluation of substituted nitroquinoxalin-2-ones and 2,3-diones as novel trichomonacidal agents” (Eur J Med Chem, 2015).

Legend:
Trichomonas vaginalis [1] = assay: Trichomonicidal activity against Trichomonas vaginalis JH31A#4 trophozite assessed as inhibition of parasite growth at 10 ug/ml after 24 hrs by resazurin redox dye based fluorimetric microtiter method; assay type: functional; details: JH31A#4, 24 h, read-out: GI
Trichomonas vaginalis [2] = assay: Trichomonicidal activity against Trichomonas vaginalis JH31A#4 trophozite assessed as inhibition of parasite growth after 24 hrs by resazurin redox dye based fluorimetric microtiter method; assay type: functional, organism-based; details: JH31A#4, 24 h
Trichomonas vaginalis [3] = assay: Trichomonicidal activity against Trichomonas vaginalis JH31A#4 trophozite assessed as inhibition of parasite growth at 300 uM after 24 hrs by resazurin redox dye based fluorimetric microtiter method; assay type: functional; details: JH31A#4, 24 h
Trichomonas vaginalis [4] = assay: Trichomonicidal activity against Trichomonas vaginalis JH31A#4 trophozite assessed as inhibition of parasite growth at 150 uM after 24 hrs by resazurin redox dye based fluorimetric microtiter method; assay type: functional; details: JH31A#4, 24 h
Trichomonas vaginalis [5] = assay: Trichomonicidal activity against Trichomonas vaginalis JH31A#4 trophozite assessed as inhibition of parasite growth at 75 uM after 24 hrs by resazurin redox dye based fluorimetric microtiter method; assay type: functional; details: JH31A#4, 24 h
Trichomonas vaginalis [6] = assay: Trichomonicidal activity against Trichomonas vaginalis JH31A#4 trophozite assessed as inhibition of parasite growth at 37.5 uM after 24 hrs by resazurin redox dye based fluorimetric microtiter method; assay type: functional; details: JH31A#4, 24 h
Trichomonas vaginalis [7] = assay: Trichomonicidal activity against Trichomonas vaginalis JH31A#4 trophozite assessed as inhibition of parasite growth at 18.75 uM after 24 hrs by resazurin redox dye based fluorimetric microtiter method; assay type: functional; details: JH31A#4, 24 h
Trichomonas vaginalis [8] = assay: Trichomonicidal activity against Trichomonas vaginalis JH31A#4 trophozite assessed as inhibition of parasite growth at 9.37 uM after 24 hrs by resazurin redox dye based fluorimetric microtiter method; assay type: functional; details: JH31A#4, 24 h
Vero = assay: Cytotoxicity against African green monkey Vero cells at 300 uM after 24 hrs by resazurin redox dye based fluorimetric microtiter method; assay type: cell-based; details: chlorocebus sabaeus
[9] = Cytotoxicity against African green monkey Vero cells assessed as inhibition of cell growth after 24 hrs by resazurin redox dye based fluorimetric microtiter method; details: chlorocebus sabaeus
[10] = Selectivity index, ratio of CC50 for African green monkey Vero cells to IC50 for Trichomonas vaginalis JH31A#4 trophozite; assay type: functional
Trichomonas vaginalis [11] = assay: Trichomonicidal activity against Trichomonas vaginalis C-1:NIH trophozoites infected in NMRI mouse assessed as reduction of pathogenicity at 50 mg/kg, po administered for 7 days from day 3 to day 10 post-infection measured at day 15 post-infection; assay type: functional
Trichomonas vaginalis [12] = assay: Trichomonicidal activity against Trichomonas vaginalis C-1:NIH trophozoites infected in NMRI mouse assessed as reduction of pathogenicity at 100 mg/kg, po administered for 7 days from day 3 to day 10 post-infection measured at day 15 post-infection; assay type: functional
Mus musculus = assay: Toxicity against NMRI mouse infected with Trichomonas vaginalis C-1:NIH trophozoites assessed as animal death at 50 to 100 mg/kg, po administered for 7 days from day 3 to day 10 post-infection measured at day 15 post-infection; assay type: organism-based; details: in vivo, 168 h
Trichomonas vaginalis [13] = assay: Trichomonicidal activity against Trichomonas vaginalis C-1:NIH trophozoites infected in NMRI mouse assessed as reduction of pathogenicity at 25 mg/kg/day, po administered for 7 days from day 3 to day 10 post-infection measured at day 15 post-infection; assay type: functional

SMILES | inhibition of growth at 10 µg/mL (Trichomonas vaginalis [1]) [%] | IC50 (Trichomonas vaginalis [2]) [µM] | inhibition at 300 µM (Trichomonas vaginalis [3]) [%] | inhibition at 150 µM (Trichomonas vaginalis [4]) [%] | inhibition at 75 µM (Trichomonas vaginalis [5]) [%] | inhibition at 37.5 µM (Trichomonas vaginalis [6]) [%] | inhibition at 18.75 µM (Trichomonas vaginalis [7]) [%] | inhibition at 9.37 µM (Trichomonas vaginalis [8]) [%] | Activity (Vero) [%] | CC50 at 24 h [9] [µM] | Ratio CC50/IC50 [10] | inhibition in vivo at 50 mg/kg (Trichomonas vaginalis [11]) [%] | inhibition in vivo at 100 mg/kg (Trichomonas vaginalis [12]) [%] | Activity (Mus musculus) | inhibition in vivo at 25 mg/kg/day (Trichomonas vaginalis [13]) [%]
O=C1CN(CCCCCl)c2ccc([N+](=O)[O-])cc2N1 | 73 | – | – | – | – | – | – | – | – | – | – | – | – | – | –
O=C1CN(CCCCCCl)c2ccc([N+](=O)[O-])cc2N1 | 73 | – | – | – | – | – | – | – | – | – | – | – | – | – | –
CN1C(=O)CN(CCCCCl)c2ccc([N+](=O)[O-])cc21 | 73 | – | – | – | – | – | – | – | – | – | – | – | – | – | –
CN1C(=O)CN(CCCCCCCl)c2ccc([N+](=O)[O-])cc21 | 94 | – | – | – | – | – | – | – | – | – | – | – | – | – | –
O=C1CN(CCCCCCCl)c2ccc([N+](=O)[O-])cc2N1 | 73 | – | – | – | – | – | – | – | – | – | – | – | – | – | –
CN(C)CCN1CC(=O)Nc2cc([N+](=O)[O-])ccc21.Cl | 7 | 36.8 | 98.5 | 96.9 | 83.7 | 40.8 | 28.4 | 5.16 | 0 | > 300 | >10 | – | – | – | –
CCN(CC)CCCN1CC(=O)Nc2cc([N+](=O)[O-])ccc21.Cl | – | 38.9 | 88.6 | 64.2 | 59 | 55.5 | 28.8 | 23.1 | 0.16 | > 300 | >10 | – | – | – | –
Cl.O=C1CN(CCN2CCCCC2)c2ccc([N+](=O)[O-])cc2N1 | – | 30.7 | 99 | 82.2 | 78.3 | 45.6 | 32.7 | 26 | 1.51 | > 300 | >10 | – | – | – | –
Cl.O=C1CN(CCCN2CCCCC2)c2ccc([N+](=O)[O-])cc2N1 | 7 | 18.3 | 100 | 98.9 | 82.4 | 70.3 | 58.4 | 24.2 | 3.26 | > 300 | >10 | 50.7 | 46.1 | Non-toxic | –
O=C1CN(CCCO)c2ccc([N+](=O)[O-])cc2N1 | – | 102 | 84 | 68.1 | 28.4 | 26.6 | 4.5 | 3.66 | – | – | – | – | – | – | –
CN(C)CCN1CC(=O)N(C)c2cc([N+](=O)[O-])ccc21 | 7 | 50.7 | 100 | 99.9 | 73.9 | 20.4 | 6.7 | 1.36 | 17.29 | 648 | 12.77 | – | – | – | –
CCN(CC)CCCN1CC(=O)N(C)c2cc([N+](=O)[O-])ccc21.Cl | – | 32.4 | 100 | 100 | 96.1 | 55.5 | 14 | 1.8 | 10.81 | 1240 | 38.07 | – | – | – | –
CN1C(=O)CN(CCN2CCCCC2)c2ccc([N+](=O)[O-])cc21 | – | 29.9 | 100 | 100 | 96 | 59.6 | 13.9 | 7.8 | 0 | > 300 | >10 | – | – | – | –
CN1C(=O)CN(CCCN2CCCCC2)c2ccc([N+](=O)[O-])cc21 | 7 | 110 | 99.3 | 63.3 | 28.4 | 26.6 | 18.6 | 6.97 | – | – | – | – | – | – | –
CN1C(=O)CN(CCCO)c2ccc([N+](=O)[O-])cc21 | – | 60.7 | 94.8 | 77.2 | 48.4 | 33.4 | 19 | 6.39 | 5.07 | > 300 | >10 | – | – | – | –
O=C1Nc2cc([N+](=O)[O-])ccc2N2CCCOC12 (centres undefined) | – | 41.9 | 99.5 | 92.8 | 77.4 | 51.3 | 12.1 | 0.98 | 2.08 | > 300 | >10 | – | – | – | –
Cn1c(=O)c(=O)[nH]c2cc([N+](=O)[O-])ccc21 | – | 111 | 41.7 | 39 | 38.6 | 33.7 | 17.8 | 8.89 | – | – | – | – | – | – | –
O=c1[nH]c2cc([N+](=O)[O-])ccc2n(CCCCCl)c1=O | – | 151 | 94.9 | 40.6 | 21.4 | 18 | 12.7 | 8.25 | – | – | – | – | – | – | –
O=c1[nH]c2cc([N+](=O)[O-])ccc2n(CCCCCCl)c1=O | – | 147 | 94 | 47.1 | 9.7 | 0.85 | 0.42 | 0 | – | – | – | – | – | – | –
O=c1[nH]c2cc([N+](=O)[O-])ccc2n(CCCCCBr)c1=O | – | 145 | 79.6 | 49 | 20.1 | 11.6 | 4.09 | 0 | – | – | – | – | – | – | –
O=c1[nH]c2cc([N+](=O)[O-])ccc2n(CCCCCCCl)c1=O | – | 106 | 95.8 | 70.8 | 45.1 | 15.1 | 17 | 9.43 | – | – | – | – | – | – | –
Cn1c(=O)c(=O)n(C)c2cc([N+](=O)[O-])ccc21 | – | 235 | 61.4 | 35.4 | 22.5 | 18.6 | 15.8 | 12.9 | – | – | – | – | – | – | –
Cn1c(=O)c(=O)n(CCCCCl)c2ccc([N+](=O)[O-])cc21 | – | 179 | 68.5 | 52.7 | 36.2 | 20.1 | 19.9 | 11.8 | – | – | – | – | – | – | –
Cn1c(=O)c(=O)n(CCCCCCl)c2ccc([N+](=O)[O-])cc21 | – | 61.4 | 70.2 | 66.2 | 52.2 | 45.7 | 40.1 | 22.1 | 0 | > 300 | >10 | – | – | – | –
Cn1c(=O)c(=O)n(CCCCCBr)c2ccc([N+](=O)[O-])cc21 | – | 256 | 51.1 | 42.8 | 40.9 | 26.9 | 21.5 | 17.8 | – | – | – | – | – | – | –
Cn1c(=O)c(=O)n(CCCCCCCl)c2ccc([N+](=O)[O-])cc21 | – | 25.4 | 92.6 | 84.7 | 75.5 | 53.1 | 42.1 | 31.6 | 14.14 | > 300 | >10 | – | – | – | –
CN1C(=O)CN(CCCCCCl)c2ccc([N+](=O)[O-])cc21 | 73 | – | – | – | – | – | – | – | – | – | – | – | – | – | –
Cc1ncc([N+](=O)[O-])n1CCO [METRONIDAZOLE] | – | 4.16 | 100 | 100 | 100 | 99.4 | 96 | 82.7 | 0 | > 600 | >10 | – | – | – | 94
